In patent publication US20140113912A1, “TREATMENT AND MANAGEMENT OF CNS DISORDERS” (priority 2011, published 2014):
“Also recorded” adds a separate entry of the source.

How the values were obtained:
serotonin 5-HT1A = molecular target: T1, serotonin 5-HT1A (Homo sapiens, UniProt P08908); conditions: reported; cited from earlier work
T1 sequence (P08908 1-422): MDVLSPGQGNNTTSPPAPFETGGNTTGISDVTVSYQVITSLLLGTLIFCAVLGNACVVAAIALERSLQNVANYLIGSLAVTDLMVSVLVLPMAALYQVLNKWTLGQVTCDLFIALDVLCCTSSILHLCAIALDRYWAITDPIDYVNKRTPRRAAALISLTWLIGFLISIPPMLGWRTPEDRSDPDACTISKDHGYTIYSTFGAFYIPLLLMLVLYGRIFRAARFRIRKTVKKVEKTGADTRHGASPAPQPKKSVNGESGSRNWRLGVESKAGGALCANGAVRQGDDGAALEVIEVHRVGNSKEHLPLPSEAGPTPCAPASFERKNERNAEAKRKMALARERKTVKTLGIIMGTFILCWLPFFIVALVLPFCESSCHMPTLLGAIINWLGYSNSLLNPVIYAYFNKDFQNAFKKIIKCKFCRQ

[1] = molecular target: T2, noradrenaline α2C receptors (Homo sapiens, UniProt P18825); conditions: reported; cited from earlier work
T2 sequence (P18825 1-462): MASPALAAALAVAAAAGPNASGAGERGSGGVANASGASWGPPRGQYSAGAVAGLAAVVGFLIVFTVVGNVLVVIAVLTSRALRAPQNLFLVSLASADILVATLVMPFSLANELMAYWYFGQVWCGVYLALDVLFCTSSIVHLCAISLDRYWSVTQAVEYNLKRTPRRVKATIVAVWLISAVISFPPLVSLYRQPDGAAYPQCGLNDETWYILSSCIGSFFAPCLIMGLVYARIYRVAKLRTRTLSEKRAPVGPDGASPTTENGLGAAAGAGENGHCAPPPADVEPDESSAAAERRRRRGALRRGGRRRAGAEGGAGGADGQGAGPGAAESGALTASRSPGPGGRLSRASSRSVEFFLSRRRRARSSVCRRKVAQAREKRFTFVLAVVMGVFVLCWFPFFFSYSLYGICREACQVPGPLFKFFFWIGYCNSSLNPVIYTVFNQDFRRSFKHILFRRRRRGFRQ

dopamine D2 = dopamine D2 (Homo sapiens, UniProt P14416); conditions: reported; cited from earlier work
Sequence of dopamine D2 (P14416 whole entry): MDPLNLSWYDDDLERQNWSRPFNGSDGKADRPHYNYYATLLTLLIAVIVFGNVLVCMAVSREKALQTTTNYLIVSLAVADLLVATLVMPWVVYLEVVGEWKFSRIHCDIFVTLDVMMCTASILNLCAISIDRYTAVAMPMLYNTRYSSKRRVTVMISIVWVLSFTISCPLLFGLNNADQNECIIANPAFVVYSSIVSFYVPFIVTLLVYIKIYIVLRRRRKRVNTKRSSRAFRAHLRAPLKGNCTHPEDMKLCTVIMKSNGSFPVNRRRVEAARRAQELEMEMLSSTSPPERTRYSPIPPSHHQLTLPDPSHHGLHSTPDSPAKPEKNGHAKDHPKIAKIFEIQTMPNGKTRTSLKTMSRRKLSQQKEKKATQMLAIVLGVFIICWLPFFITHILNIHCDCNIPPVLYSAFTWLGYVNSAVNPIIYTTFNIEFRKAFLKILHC

glycine = test: Metabolomic analysis: glycine level; parameters: species or system human; conditions: in vivo
Description: (§1) Blood samples were taken at 4 days and 6 weeks following treatment. Plasma samples were isolated from whole blood and used for global metabolomic profiling.
(§2) At the time of analysis, samples were thawed and extracts prepared according to a standard protocol, which is designed to remove protein, dislodge small molecules bound to protein or physically trapped in the precipitated protein matrix, and recover a wide range of chemically diverse metabolites. A separate aliquot of each experimental plasma sample was taken then pooled for the creation of “Client Matrix” (CMTRX) samples. These CMTRX samples were injected throughout the platform run and served as technical replicates, allowing variability in the quantitation of all consistently detected biochemicals to be determined and overall process variability and platform performance to be monitored. Extracts of all experimental and CMTRX samples were split for analysis on the GC/MS and LC/MS/MS platforms.
(§3) The CMTRX technical replicate samples were treated independently throughout the process as if they were study samples. All process samples (CMTRX, GROBs—a mixture of organic components used to assess GC column performance, process blanks, etc.) were spaced evenly among the injections for each day and all client samples were randomly distributed throughout each day's run. […]

histamine H1 = histamine H1 (Homo sapiens, UniProt P35367); conditions: reported; cited from earlier work
Sequence of histamine H1 (P35367 whole entry): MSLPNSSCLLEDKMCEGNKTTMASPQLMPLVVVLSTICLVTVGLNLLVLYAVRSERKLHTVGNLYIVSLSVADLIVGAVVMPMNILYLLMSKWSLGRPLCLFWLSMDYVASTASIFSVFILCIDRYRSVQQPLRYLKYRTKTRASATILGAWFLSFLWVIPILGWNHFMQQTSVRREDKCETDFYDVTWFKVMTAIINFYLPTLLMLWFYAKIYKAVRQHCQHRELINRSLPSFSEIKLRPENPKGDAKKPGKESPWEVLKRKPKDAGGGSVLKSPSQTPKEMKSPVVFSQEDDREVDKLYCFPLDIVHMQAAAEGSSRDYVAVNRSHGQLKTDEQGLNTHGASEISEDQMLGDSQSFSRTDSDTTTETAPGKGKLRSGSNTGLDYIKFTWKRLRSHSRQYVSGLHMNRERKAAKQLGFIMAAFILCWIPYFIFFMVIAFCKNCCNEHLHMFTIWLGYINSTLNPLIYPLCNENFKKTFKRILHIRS

glutamate = test: Metabolomic analysis of plasma samples: glutamate level; assay type: in vivo, human
Description: as §1, §2
(§4) The CMTRX technical replicate samples were treated independently throughout the process as if they were study samples. All process samples (CMTRX, GROBs—a mixture of organic components used to assess GC column performance, process blanks, etc.) were spaced evenly among the injections for each day and all client samples were randomly distributed throughout each day's run. Data were collected over eight platform run days and thus, ‘block normalized’ by calculating the median values for each run-day block for each individual compound. […] Missing values (if any) were assumed to be below the level of detection for that biochemical with the instrumentation used and were imputed with the observed minimum for that particular biochemical.
A number of internal standards were added to each experimental and process standard sample just prior to injection into the mass spectrometers. A measure of the platform variability was determined by calculating the median relative standard deviation (RSD) for these internal standards. […] Because these standards were added to the samples immediately prior to injection into the instrument, this value reflects instrument variation. In addition, the median relative standard deviation (RSD) for the biochemicals that were consistently measured in the CMTRX represents the total variability within the process for the actual experimental samples and the variability in quantitation of the endogenous metabolites within these samples (Table 2).
Biochemical data were analyzed by ANOVA contrasts and a Two-way ANOVA.
(§5) Statistical analyses of the data were performed on natural log-transformed data to reduce the effect of any potential outliers in the data. T-test comparisons were calculated using the one or both of the statistical software analysis programs: Array Studio (Omicsoft, Inc) or ‘R’ from the Free Software Foundation, Inc.
(§6) For t-test comparisons, within each group: placebo, lurasidone and olanzapine, the early versus the late time point was compared (i.e., 4 days versus 6 weeks). In addition, both lurasidone and olanzapine were compared with placebo at the appropriate time point and then lurasidone was compared with olanzapine at both 4 days and 6 weeks.

5-HT2A = 5-HT2A (Homo sapiens, UniProt P28223); conditions: reported; cited from earlier work
Sequence of 5-HT2A (P28223 whole entry, species assumed): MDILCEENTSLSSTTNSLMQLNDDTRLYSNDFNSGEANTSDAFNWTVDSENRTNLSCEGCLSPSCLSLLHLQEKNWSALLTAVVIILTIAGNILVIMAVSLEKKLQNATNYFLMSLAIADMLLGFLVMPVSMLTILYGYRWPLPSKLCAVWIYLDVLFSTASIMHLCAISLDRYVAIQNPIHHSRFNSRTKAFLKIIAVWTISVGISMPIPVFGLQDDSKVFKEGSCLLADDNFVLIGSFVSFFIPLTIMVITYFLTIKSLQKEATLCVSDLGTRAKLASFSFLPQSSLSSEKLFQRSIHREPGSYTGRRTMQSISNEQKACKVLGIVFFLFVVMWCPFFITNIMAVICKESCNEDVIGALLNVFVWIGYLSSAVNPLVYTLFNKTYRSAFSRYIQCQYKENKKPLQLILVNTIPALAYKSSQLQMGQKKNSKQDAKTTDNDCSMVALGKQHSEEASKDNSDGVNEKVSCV

[2] = test system: positive and negative symptoms of schizophrenia; conditions: several placebo-controlled trials; cited from earlier work
[3] = test system: patient diagnosed schizophrenia; test: PANSS scoring, 6-week double-blind treatment; assay type: in vivo, human; conditions: 6 weeks; treatment responders only; lurasidone 40 mg/d, olanzapine 15 mg/d, placebo; FIG. 1
Protocol: Positive and Negative Syndrome Scale (PANSS) was measured according to the procedures well-established in the art. Clinical interviews were conducted by qualified trained professionals. A patient diagnosed schizophrenia was rated from 1 to 7 on 30 different symptoms based in the interview. The 30 symptoms assessed were: (1) positive symptoms, i.e., delusions, conceptual disorganization, hallucinations, hyperactivity, grandiosity, suspiciousness/persecution and hostility; (2) negative symptoms, i.e., blunted affect, emotional withdrawal, poor rapport, passive/apathetic social withdrawal, difficulty in abstract thinking, lack of spontaneity and flow of conversation and stereotyped thinking; and (3) general psychopathology symptoms, i.e., somatic concern, anxiety, guilt feelings, tension, mannerism and posturing, depression, motor retardation, uncooperativeness, unusual thought content, disorientation, poor attention, lack of judgment and insight, disturbance of volition, poor impulse control, preoccupation and active social avoidance. […]
Prior to the baseline visit, subjects underwent a 3-7 day washout of their current antipsychotic medication and randomized to receive either lurasidone (40 mg per day), olanzapine (15 mg per day) or placebo for 6 weeks. Symptom improvement was assessed by the change in PANSS score (total and subscale scores) from baseline to study endpoint. […]

732 biochemicals = test: Global metabolomic profiling: number of biochemicals significantly changed; assay type: in vivo, human; conditions: Day 42; for number of biochemicals significantly decreased / number of biochemicals significantly increased: of 732 biochemicals; for share of biochemicals significantly changed / number of biochemicals whose serum levels were significantly changed: of a total of 732 biochemicals; for number of biochemicals whose serum levels were significantly changed: p≦0.05
Description: as §1, §2, §4
Two parameters are typically evaluated when considering statistical significance, namely the p-value and the q-value. […] The q-value describes the false discovery rate; a low q-value (q≦0.10) is an indication of high confidence in a result. Because of the multiple testing occurring in the data sets produced by metabolomic studies, data is often evaluated for false positives.
as §5, §6

serine = test: Metabolomic analysis: serine level; parameters: species or system human; conditions: in vivo
Description: as §1, §2, §3

aspartate = test: Metabolomic analysis: aspartate level; parameters: species or system human; conditions: in vivo
Description: as §1, §2, §3

5-HT7 = 5-HT7 (Homo sapiens, UniProt P34969); conditions: reported; cited from earlier work
Sequence of 5-HT7 (P34969 whole entry, species assumed): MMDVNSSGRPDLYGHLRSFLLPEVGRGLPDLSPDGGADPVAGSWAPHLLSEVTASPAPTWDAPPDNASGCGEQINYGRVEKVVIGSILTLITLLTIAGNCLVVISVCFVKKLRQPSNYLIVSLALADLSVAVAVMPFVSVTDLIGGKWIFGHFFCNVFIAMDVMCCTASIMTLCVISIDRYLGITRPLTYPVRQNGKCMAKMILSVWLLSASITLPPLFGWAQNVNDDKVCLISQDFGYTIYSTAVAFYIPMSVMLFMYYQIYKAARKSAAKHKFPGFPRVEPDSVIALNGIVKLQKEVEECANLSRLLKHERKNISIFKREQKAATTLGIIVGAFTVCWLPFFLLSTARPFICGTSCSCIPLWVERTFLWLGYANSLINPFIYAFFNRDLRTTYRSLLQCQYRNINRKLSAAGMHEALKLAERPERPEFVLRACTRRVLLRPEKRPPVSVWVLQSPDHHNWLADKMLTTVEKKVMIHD

muscarinic M1 receptors = molecular target: T3, muscarinic M1 receptors (Homo sapiens, UniProt P11229); conditions: reported; cited from earlier work
T3 sequence (P11229 1-460): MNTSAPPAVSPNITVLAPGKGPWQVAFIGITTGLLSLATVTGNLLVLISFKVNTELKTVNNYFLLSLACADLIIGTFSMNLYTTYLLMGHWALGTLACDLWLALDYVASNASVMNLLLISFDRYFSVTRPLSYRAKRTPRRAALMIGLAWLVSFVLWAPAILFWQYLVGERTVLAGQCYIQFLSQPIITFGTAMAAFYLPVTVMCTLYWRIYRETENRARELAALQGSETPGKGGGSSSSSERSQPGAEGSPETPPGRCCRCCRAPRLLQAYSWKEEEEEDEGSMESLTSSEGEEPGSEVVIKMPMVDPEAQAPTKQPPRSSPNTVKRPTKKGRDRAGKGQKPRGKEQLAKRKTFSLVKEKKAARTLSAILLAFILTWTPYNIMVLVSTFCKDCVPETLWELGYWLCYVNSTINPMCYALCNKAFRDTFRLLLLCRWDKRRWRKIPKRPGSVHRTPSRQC

[4] = Total Sample of treatment responders, lurasidone 40 mg/d, olanzapine 15 mg/d, plasma
[5] = subgroup PANSS Negative Change at Week 6 ≦median change score
[6] = subgroup PANSS Positive Change at Week 6 >median change score
[7] = subgroup PANSS Positive Change at Week 6 ≦median change score
[8] = subgroup PANSS Total Change at Week 6 >median change score
[9] = subgroup PANSS Total Change at Week 6 ≦median change score

Row | SMILES | Glutamate Levels at Week 6, mean (SD) (glutamate; [4]) | Glutamate Levels at Week 6, mean (SD) (glutamate; [5]) | Glutamate Levels at Week 6, mean (SD) (glutamate; [6]) | Glutamate Levels at Week 6, mean (SD) (glutamate; [7]) | Glutamate Levels at Week 6, mean (SD) (glutamate; [8]) | Glutamate Levels at Week 6, mean (SD) (glutamate; [9]) | number of biochemicals significantly decreased (732 biochemicals) | number of biochemicals significantly increased (732 biochemicals) | share of biochemicals significantly changed (732 biochemicals) | number of biochemicals whose serum levels were significantly changed (732 biochemicals) | also measured
1 | O=C1[C@@H]2[C@H]3CC[C@H](C3)[C@@H]2C(=O)N1C[C@@H]1CCCC[C@H]1CN1CCN(c2nsc3ccccc23)CC1 [Lurasidone] | 1.12 (0.34) | 1.00 (0.28) | 1.14 (0.41) | 1.09 (0.23) | 1.13 (0.38) | 1.09 (0.27) | 14 | 11 | 3% | 25 | affinity for serotonin 5-HT1A (serotonin 5-HT1A): high affinity; also recorded: moderate affinity; affinity for noradrenaline α2C receptors [1]: high affinity; affinity for dopamine D2 (dopamine D2): high affinity; level of glycine upon treatment (glycine): increased; affinity for histamine H1 (histamine H1): minimal to no affinity; overall glutamate level compared with the placebo group (glutamate; days 4 and weeks 6, treatment responders, FIG. 2): significantly greater; glutamate level in responders with high improvement in negative symptoms compared with other responder groups (glutamate; week 6, PANSS negative change above median, FIG. 3): significantly higher increase; also recorded: significantly higher than all other responder groups; relation between levels of glutamate and change in PANSS negative subscore (glutamate; week 6, scatterplot FIG. 4): proportional; affinity for 5-HT2A (5-HT2A): high affinity; ameliorating the positive and negative symptoms of schizophrenia [2]: effective; improvement in PANSS total, positive and negative subscores across treatment groups [3]: comparable; level of serine upon treatment (serine): increased; level of aspartate upon treatment (aspartate): increased; affinity for 5-HT7 (5-HT7): high affinity; affinity for muscarinic M1 receptors (muscarinic M1 receptors): minimal to no affinity
2 | Cc1cc2c(s1)Nc1ccccc1N=C2N1CCN(C)CC1 [Olanzapine, olanzapine] | 1.00 (0.24) | 1.03 (0.23) | 1.02 (0.27) | 0.98 (0.22) | 1.01 (0.27) | 0.99 (0.26) | 46 | 54 | 14% | 100 | Glutamate Levels at Week 6, mean (SD) (glutamate; subgroup PANSS Negative Change at Week 6 >median change score, *lurasidone vs. olanzapine P = 0.014, vs placebo P = 0.025): 0.97 (0.26)
